Reference: patent publication US20240336897A1, “COMPOSITIONS AND METHODS FOR CELL REPROGRAMMING” (CORNELL UNIVERSITY, priority 2021, published 2024)

Assays:
[1] = system: biPSCs; experiment: Base medium lacking individual inhibitors for GSK3β, MEK1/2 or TGFβ/activin/nodal; conditions: GMTi base medium lacking this inhibitor
Method: (§1) The biPSC colonies emerging from reprogramming trials were manually picked, dissociated into single cells using TrypLE™ (ThermoFisher) and plated on iMEFs in GMTi medium. For passaging, confluent cultures of biPSCs were rinsed once with PBS and incubated with TrypLE for 5 minutes. Cells were then collected in fibroblast medium, and centrifuged at 200×rcf for 5 minutes. The pellet was then resuspended in GMTi medium for plating on iMEFs. Passaging of biPSCs was performed repeatedly (every 3-4 days), with concurrent examination and imaging of morphology, growth characteristics and expression of PSC markers. […] Base medium conditions lacking individual inhibitors for GSK3β, MEK1/2 or TGFβ/activin/nodal were also prepared and tested for their ability to sustain pluripotent cultures. All cultures were maintained in a humidified incubator at 37° C. under an atmosphere of 5% CO2.

[2] = system: biPSCs; experiment: Sustenance of biPSCs using specific pathway inhibition (GMTi medium): repeated passaging, morphology; conditions: at least over a few passages, cell morphology
Method: as §1

[3] = system: biPSCs; conditions: MEK1/2 and GSK3B inhibitors used together; cited from earlier work

Compound: Cc1cccc(-c2nn(C(=S)Nc3ccccc3)cc2-c2ccnc3ccccc23)n1 [A83-01]
- effect of removing the single inhibitor from biPSC cultures [1]: resulted in differentiation

Compound: IL6: interleukin 6, leukemia inhibitory factor family member
- effect of excluding the factor from the GMTi medium on biPSCs [2]: did not negatively affect biPSCs

Compound: LIF: human leukemia inhibitory factor
- effect of excluding the factor from the GMTi medium on biPSCs [2]: did not negatively affect biPSCs

Compound: O=C(NOC[C@H](O)CO)c1ccc(F)c(F)c1Nc1ccc(I)cc1F [PD0325901]
- effect on biPSCs [3]: suspend biPSCs in a pluripotent state, but without the ability to proliferate

Compound: Cc1c[nH]c(-c2cnc(NCCNc3ccc(C#N)cn3)nc2-c2ccc(Cl)cc2Cl)n1 [CHIR99021]
- effect on biPSCs [3]: suspend biPSCs in a pluripotent state, but without the ability to proliferate
- effect of removing the single inhibitor from biPSC cultures [1]: resulted in differentiation
